Assay [1] addresses recombinant human GAA (acid alpha-glucosidase) (Homo sapiens, UniProt P10253). Description: Acid alpha-glucosidase (GAA) assay (4-methylumbelliferyl-alpha-D-pyranoside substrate, fluorescence). The format is biochemical. Put shortly:
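Recombinant human enzyme preincubated 60 min at 37 °C with compound dilutions, then 4-methylumbelliferyl-alpha-D-pyranoside substrate added for 20 min at 37 °C. Stopped with glycine/NaOH pH 10; methylumbelliferone fluorescence (ex 365, em 440 nm) versus untreated enzyme; IC50 by 4-PL fit.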

The target of assay [2] is T1, recombinant human GBA (beta-glucocerebrosidase) (Homo sapiens, UniProt P04062).
T1 sequence (P04062 40-536): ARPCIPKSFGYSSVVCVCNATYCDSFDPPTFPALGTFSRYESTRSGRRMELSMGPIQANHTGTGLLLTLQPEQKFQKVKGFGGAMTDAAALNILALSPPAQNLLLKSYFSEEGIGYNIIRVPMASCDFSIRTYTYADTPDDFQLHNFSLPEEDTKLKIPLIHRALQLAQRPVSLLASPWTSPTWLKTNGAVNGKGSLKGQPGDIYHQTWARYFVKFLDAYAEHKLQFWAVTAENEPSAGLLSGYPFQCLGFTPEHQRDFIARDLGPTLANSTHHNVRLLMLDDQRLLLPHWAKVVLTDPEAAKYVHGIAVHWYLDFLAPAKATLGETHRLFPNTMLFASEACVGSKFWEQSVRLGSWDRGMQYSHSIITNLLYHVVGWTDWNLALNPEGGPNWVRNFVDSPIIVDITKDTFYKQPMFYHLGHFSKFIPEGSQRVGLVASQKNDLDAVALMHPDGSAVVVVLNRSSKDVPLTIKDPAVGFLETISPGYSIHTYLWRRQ
Description: Beta-glucocerebrosidase (GBA, glucosylceramidase) assay (4-methylumbelliferyl-beta-D-pyranoside substrate, fluorescence). The format is biochemical. Put shortly: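 Recombinant human GBA preincubated with compound dilutions 60 min at 37 °C, then 4-methylumbelliferyl-beta-D-pyranoside added for 60 min at 37 °C. Stopped at pH 10 (glycine/NaOH); fluorescence ex 365/em 440 nm. IC50 from 4-PL fit of inhibition relative to untreated enzyme.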

With `[N-]=[N+]=Nc1ccc(NCCS(=O)(=O)CCCN2C[C@H](O)[C@@H](O)[C@H](O)[C@H]2CO)c([N+](=O)[O-])c1` [Compound 1274, (2R,3R,4R,5S)-1-(3-{2-[(4-azido-2-nitrophenyl)amino]ethane-sulfonyl}propyl)-2-(hydroxymethyl)piperidine-3,4,5-triol], the figures for the IC50 in assay [1] and in assay [2] were 136 nM and 2990 nM, respectively.

In the case of `[N-]=[N+]=Nc1ccc(NCCNS(=O)(=O)NCCN2C[C@H](O)[C@@H](O)[C@H](O)[C@H]2CO)c([N+](=O)[O-])c1` [Compound 1275, (2R,3R,4R,5S)-1-{2-[({2-[(4-azido-2-nitrophenyl)amino]ethyl}sulfamoyl)amino]ethyl}-2-(hydroxymethyl)piperidine-3,4,5-triol], the results for the IC50 in assay [1] and in assay [2] were 556 nM and 2170 nM, respectively.

For the molecule `[N-]=[N+]=Nc1ccc(NCCNC(=O)NCCN2C[C@H](O)[C@@H](O)[C@H](O)[C@H]2CO)c([N+](=O)[O-])c1` [Compound 1276, 1-{2-[(4-azido-2-nitrophenyl)amino]ethyl}-3-{2-[(2R,3R,4R,5S)-3,4,5-trihydroxy-2-(hydroxymethyl)piperidin-1-yl]ethyl}urea], the IC50 (in general, the concentration at which inhibition is half-maximal) in assay [1] is 253 nM; in assay [2], 62 nM.

`Nc1ccc(NCCCCCCCCN2C[C@H](O)[C@@H](O)[C@H](O)[C@H]2CO)c([N+](=O)[O-])c1Cl` [Compound 1277, (2R,3R,4R,5S)-1-{8-[(4-amino-3-chloro-2-nitrophenyl)amino]octyl} 2-(hydroxymethyl)piperidine-3,4,5-triol]: the IC50 in assay [1] and in assay [2] was below 10 nM in each case.

`CC#Cc1ccc(NCCCCCCN2C[C@H](O)[C@@H](O)[C@H](O)[C@H]2CO)c([N+](=O)[O-])c1` [Compound 1290, (2R,3R,4R,5S)-2-(hydroxymethyl)-1-(6-{[2-nitro-4-(prop-1-yn-1-yl)phenyl]amino}hexyl)piperidine-3,4,5-triol]: the values for the IC50 in assay [1] and in assay [2] were 21 nM and 175 nM, respectively.

Turning to `[N-]=[N+]=Nc1ccc(NCCCCCCN2C[C@H](O)[C@@H](O)[C@H](O)[C@H]2CO)c(C(N)=O)c1` [Compound 1296, 5-azido-2-({6-[(2R,3R,4R,5S)-3,4,5-trihydroxy-2-(hydroxymethyl)piperidin-1-yl]hexyl}amino)benzamide], the values for the IC50 in assay [1] and in assay [2] were 124 nM and 3260 nM, respectively.

As to `[N-]=[N+]=Nc1ccc(NCCCCCCN2C[C@H](O)[C@@H](O)[C@H](O)[C@H]2CO)c(C(=O)O)c1` [Compound 1297, 5-azido-2-({6-[(2R,3R,4R,5S)-3,4,5-trihydroxy-2-(hydroxymethyl)piperidin-1-yl]hexyl}amino)benzoic acid], the figures for the IC50 in assay [1] and in assay [2] were 452 nM and 3520 nM, respectively.

Take `N#CCc1ccc(NCCCCCCN2C[C@H](O)[C@@H](O)[C@H](O)[C@H]2CO)c([N+](=O)[O-])c1` [Compound 1299, 2-[3-nitro-4-({6-[(2R,3R,4R,5S)-3,4,5-trihydroxy-2-(hydroxymethyl)piperidin-1-yl]hexyl}amino)phenyl]acetonitrile]: the IC50 in assay [1] turned out to be 32 nM; in assay [2], 3390 nM.

Turning to `N#Cc1ccc(NCCCCCCN2C[C@H](O)[C@@H](O)[C@H](O)[C@H]2CO)c([N+](=O)[O-])c1` [Compound 1304, 3-nitro-4-({6-[(2R,3R,4R,5S)-3,4,5-trihydroxy-2-(hydroxymethyl)piperidin-1-yl]hexyl}amino)benzonitrile], the IC50 in assay [1] and in assay [2] was 43 nM each time.

For the molecule `COc1ccc(-c2ccc(CCCN3C[C@H](O)[C@@H](O)[C@H](O)[C@H]3CO)cc2)cc1` [Compound 1305, (2R,3R,4R,5S)-2-(hydroxymethyl)-1-(3-{4′-methoxy-[1,1′-biphenyl]-4-yl}propyl)piperidine-3,4,5-triol], the IC50 was determined as 498 nM in assay [1] and 7860 nM in assay [2].

On to `COc1ccc(-c2ccc(CN3C[C@H](O)[C@@H](O)[C@H](O)[C@H]3CO)cc2)cc1` [Compound 1306, (2R,3R,4R,5S)-2-(hydroxymethyl)-1-({4′-methoxy-[1,1′-biphenyl]-4-yl}methyl)piperidine-3,4,5-triol], for which the IC50 in assay [1] was 4570 nM; in assay [2], above 100000 nM.

Values taken from patent US20250197372A1 (priority 2020, published 2025).
